# According to ChEMBL document CHEMBL4177627, “Discovery and evaluation of Cav3.1-selective T-type calcium channel blockers” (Bioorg Med Chem Lett, 2017):
# How the values were obtained:
# [1] = Solubility of the compound in aqueous medium at pH 7; assay type: physicochemical
# [2] = Plasma concentration in Wistar rat at 100 mg/kg, po measured after 1 hr; assay type: ADME, organism-based
# [3] = Unbound plasma concentration in Wistar rat at 100 mg/kg, po measured after 1 hr; assay type: ADME, organism-based; details: in vivo
# [4] = Intrinsic clearance in rat liver microsomes assessed per mg protein; assay type: ADME, microsome; details: read-out: CLH
# [5] = Drug level in Wistar rat brain at 100 mg/kg, po measured after 1 hr; assay type: ADME, organism-based; details: read-out: Drug uptake
Compound,solubility ([1]; buffer),concentration at 1 h [2] [nM],Cp(f) [3] [nM],"solubility ([1]; aqueous medium, read-out: solubility) [µg/mL]",microsomal CLint [4] [µL/min/mg],concentration at 1 h [5] [nM]
CCN(CC)CCc1c(C(=O)NCc2ccccc2OCC(F)(F)F)nn(-c2ccccc2)c1-c1ccccc1,Soluble,,,,,
O=C(NCc1ccccc1OCC(F)(F)F)c1nn(-c2ccccc2)c(-c2ccccc2)c1CCNC1CC1,Soluble,,,,,
CCNCCc1c(C(=O)NCc2ccccc2OCC(F)(F)F)nn(-c2ccccc2)c1-c1ccccc1,,810,4.9,429,377,80
